Patent US10544106B2, “Certain chemical entities, compositions, and methods” (NeuPharma, Inc., priority 2016, dated 2020)
pIC50: −log10 of the molar value.

Molecular target: BTK (Homo sapiens (Human), UniProt Q06187)
Experiment: Z'-LYTE kinase inhibition assay against BTK
Format: biochemical
Details: for inhibition at 0.1 µM: compound at 100 nM, ATP concentration at Km; for pIC50: series of concentrations, GraphPad Prism 5
How it was run: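 Compounds were titrated over 10 points (3-fold steps, 1% DMSO) against BTK (1.04-10.4 ng) using Tyr 01 substrate at 2 μM and ATP at Km, pH 7.5 HEPES buffer with MgCl2 and EGTA. After one hour each of reaction and development at room temperature, fluorescence gave percent inhibition and IC50.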

BTK, sequence (Q06187 whole entry): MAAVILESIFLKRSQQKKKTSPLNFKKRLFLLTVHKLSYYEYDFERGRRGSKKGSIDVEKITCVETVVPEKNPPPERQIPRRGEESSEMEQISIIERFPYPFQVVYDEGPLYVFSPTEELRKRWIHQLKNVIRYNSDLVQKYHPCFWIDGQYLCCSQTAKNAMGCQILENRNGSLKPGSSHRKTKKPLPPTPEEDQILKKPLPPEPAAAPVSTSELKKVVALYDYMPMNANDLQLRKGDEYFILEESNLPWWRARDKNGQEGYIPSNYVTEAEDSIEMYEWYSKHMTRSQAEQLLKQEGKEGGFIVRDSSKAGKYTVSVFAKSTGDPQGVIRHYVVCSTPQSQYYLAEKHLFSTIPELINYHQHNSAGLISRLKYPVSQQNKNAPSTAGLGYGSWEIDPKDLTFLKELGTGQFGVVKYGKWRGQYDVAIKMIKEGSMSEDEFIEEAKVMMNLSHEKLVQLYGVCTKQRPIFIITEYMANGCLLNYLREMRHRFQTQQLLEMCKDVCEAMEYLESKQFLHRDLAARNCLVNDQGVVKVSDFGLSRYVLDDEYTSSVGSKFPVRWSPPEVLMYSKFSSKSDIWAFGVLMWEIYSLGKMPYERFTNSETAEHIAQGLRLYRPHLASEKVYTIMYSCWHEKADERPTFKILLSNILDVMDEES

Row | inhibition at 0.1 µM [%] | pIC50 | SMILES
1 | < 50 |  | C=CC(=O)N1CCC(c2cc(-c3ccc(C(=O)Nc4cccc(F)c4)nc3)cc3cncnc23)C1 (stereo not shown) [C097, 5-(8-(1-acryloylpyrrolidin-3-yl)quinazolin-6-yl)-N-(3-fluorophenyl)picolinamide]
2 | < 50 |  | C=CC(=O)N1CCCC(c2cc(-c3cccnc3)cc3cncnc23)C1 (stereo not shown) [C031, 1-(3-(6-(pyridin-3-yl)quinazolin-8-yl)piperidin-1-yl)prop-2-en-1-one]
3 | < 50 |  | C=CC(=O)N1CCCC(n2c(-c3ccccc3Cl)nc3cnc(N)nc32)C1 (stereo not shown) [C027, 1-(3-(2-amino-8-(2-chlorophenyl)-9H-purin-9-yl)piperidin-1-yl)prop-2-en-1-one]
4 | < 50 | < 7.00 | C=CC(=O)N1CCC(c2cc(-c3ccc(Oc4ccccc4)cc3)c(N)c3cncnc23)C1 (stereo not shown) [C192, 1-(3-(5-amino-6-(4-phenoxyphenyl)quinazolin-8-yl)pyrrolidin-1-yl)prop-2-en-1-one]
5 | < 50 |  | C=CC(=O)N1CCC(c2cc(-c3ccc(C(=O)Nc4ccccc4)cc3)n3cnccc23)C1 (stereo not shown) [C054, 4-(5-(1-acryloylpyrrolidin-3-yl)pyrrolo[1,2-c]pyrimidin-7-yl)-N-phenylbenzamide]
6 | < 50 |  | C=CC(=O)N1CCC(c2cc(-c3ccc(Oc4ccccn4)cc3OC)cc3cnc(N)nc23)C1 (stereo not shown) [C168, 1-(3-(2-amino-6-(2-methoxy-4-(pyridin-2-yloxy)phenyl)quinazolin-8-yl)pyrrolidin-1-yl)prop-2-en-1-one]
7 | > 50 |  | C=CC(=O)Nc1cccc(-c2cc(-c3ccc(C(=O)Nc4cccc(C(F)(F)F)c4)nc3)cc3cncnc23)c1 [C071, 5-(8-(3-acrylamidophenyl)quinazolin-6-yl)-N-(3-(trifluoromethyl)phenyl)picolinamide]
8 | < 50 |  | C=CC(=O)N1CCC(c2ccc(-c3ccc(C(=O)Nc4ccccn4)cc3)c3c(N)ncnc23)C1 (stereo not shown) [C056, 4-(8-(1-acryloylpyrrolidin-3-yl)-4-amino-quinazolin-5-yl)-(N-pyridin-2-yl)benzamide]
9 | > 50 | > 7.00 | C=CC(=O)N1CCC(c2cc(-c3ccc(C(=O)Nc4cc(C#N)ccn4)cc3)n3cnccc23)C1 (stereo not shown) [C161, 4-(5-(1-acryloylpyrrolidin-3-yl)pyrrolo[1,2-c]pyrimidin-7-yl)-N-(4-cyanopyridin-2-yl)benzamide]
10 | > 50 |  | C=CC(=O)N1CCC(c2cc(-c3ccc(C(=O)Nc4cc(C5CC5)ccn4)cc3)n3cnccc23)C1 (stereo not shown) [C164, 4-(5-(1-acryloylpyrrolidin-3-yl)pyrrolo[1,2-c]pyrimidin-7-yl)-N-(4-cyclopropylpyridin-2-yl)benzamide]
11 | > 50 |  | C=CC(=O)Nc1cccc(-c2cc(-c3ccc(C(=O)Nc4cccc(F)c4)nc3)cc3cncnc23)c1 [C092, 5-(8-(3-acrylamidophenyl)quinazolin-6-yl)-N-(3-fluorophenyl)picolinamide]
12 | > 50 | > 7.00 | C=CC(=O)N1CCC(c2nc(-c3ccc(Oc4cc(C(F)(F)F)ccn4)c(F)c3)n3c(N)nccc23)C1 (stereo not shown) [C206, 1-(3-(5-amino-3-(3-fluoro-4-((4-(trifluoro-methyl)pyridin-2-yl)oxy)phenyl)imidazo[1,5-c]pyrimidin-1-yl)pyrrolidin-1-yl)prop-2-en-1-one]
13 | > 50 | > 7.00 | C=CC(=O)Nc1cccc(-c2cc(-c3ccc(Oc4ccccn4)cc3F)cc3cnc(N)nc23)c1 [C157, N-(3-(2-amino-6-(2-fluoro-4-(pyridin-2-yloxy)phenyl)quinazolin-8-yl)phenyl)acrylamide]
14 | < 50 |  | C=CC(=O)N1CCC(c2cc(-c3ccc(Oc4cc(C(F)(F)F)ccn4)cc3)n3cnccc23)C1 (stereo not shown) [C143, 1-(3-(7-(4-((4-(trifluoromethyl)pyridin-2-yl)oxy)phenyl)pyrrolo[1,2-c]pyrimidin-5-yl)pyrrolidin-1-yl)prop-2-en-1-one]
15 | > 50 |  | C=CC(=O)Nc1cccc(-c2cc(-c3ccc(Oc4ccccc4F)nc3)cc3cncnc23)c1 [C096, N-(3-(6-(6-(2-fluorophenoxy)pyridin-3-yl)quinazolin-8-yl)phenyl)acrylamide]
16 | < 50 |  | C=CC(=O)N1CCC(c2cc(-c3ccccc3)cc3cnc(N)nc23)C1 (stereo not shown) [C083, 1-(3-(2-amino-6-phenylquinazolin-8-yl)pyrrolidin-1-yl)prop-2-en-1-one]
17 | < 50 |  | C=CC(=O)N1CCC(c2cc(-c3ccc(C(=O)Nc4cc(C5CC5)ccn4)c(F)c3)n3cnccc23)C1 (stereo not shown) [C165, 4-(5-(1-acryloylpyrrolidin-3-yl)pyrrolo[1,2-c]pyrimidin-7-yl)-N-(4-cyclopropylpyridin-2-yl)-2-fluorobenzamide]
18 | > 50 |  | CC#CC(=O)N1CCC(c2nc(-c3ccc(C(=O)Nc4ccccn4)cc3)n3c(N)ncnc23)C1 (stereo not shown) [C205, 4-(4-amino-8-(1-(but-2-ynoyl)pyrrolidin-3-yl)imidazo[1,5-a][1,3,5]triazin-6-yl)-N-(pyridin-2-yl)benzamide]

Row | inhibition at 0.1 µM [%] | pIC50 | SMILES
19 | > 50 | > 7.00 | C=CC(=O)N1CCCC(c2cc(-c3ccc(Oc4ccccc4)cc3)cc3cnc(N)nc23)C1 (stereo not shown) [C028, 1-(3-(2-amino-6-(4-phenoxyphenyl)quinazolin-8-yl)piperidin-1-yl)prop-2-en-1-one]
20 | > 50 |  | C=CC(=O)Nc1cccc(-c2cc(-c3ccc(C(=O)Nc4cc(C)ccn4)cc3)cc3cncnc23)c1 [C041, 4-(8-(3-acrylamidophenyl)quinazolin-6-yl)-N-(4-methylpyridin-2-yl)benzamide]
21 | > 50 | > 7.00 | C=CC(=O)Nc1cccc(-c2cc(-c3ccncc3)cc3cncnc23)c1 [C006, N-(3-(6-(pyridin-4-yl)quinazolin-8-yl)phenyl)acrylamide]
22 | < 50 |  | C=CC(=O)N1CCC(c2cc(-c3ccc(Oc4cccc(C(F)(F)F)c4)nc3)cc3cncnc23)C1 (stereo not shown) [C082, 1-(3-(6-(6-(3-(trifluoromethyl)phenoxy)pyridin-3-yl)quinazolin-8-yl)pyrrolidin-1-yl)prop-2-en-1-one]
23 | > 50 | > 7.00 | C=CC(=O)Nc1cccc(-c2cc(-c3ccc(C)nc3)cc3cnc(N)nc23)c1 [C038, N-(3-(2-amino-6-(6-methylpyridin-3-yl)quinazolin-8-yl)phenyl)acrylamide]
24 | < 50 |  | C=CC(=O)N1CCC(c2cc(-c3ccccc3F)cc3cncnc23)C1 (stereo not shown) [C084, 1-(3-(6-(2-fluorophenyl)quinazolin-8-yl)pyrrolidin-1-yl)prop-2-en-1-one]
25 | < 50 |  | C=CC(=O)N1CCC(c2cc(-c3ccc(C(=O)Nc4ccncc4)cc3)cc3cncnc23)C1 (stereo not shown) [C155, 4-(8-(1-acryloylpyrrolidin-3-yl)quinazolin-6-yl)-N-(pyridin-4-yl)benzamide]
26 | < 50 |  | C=CC(=O)Nc1cccc(-c2cc(-c3ccc(C(=O)Nc4cc(C(F)(F)F)ccn4)c(F)c3)cc3cncnc23)c1 [C127, 4-(8-(3-acrylamidophenyl)quinazolin-6-yl)-2-fluoro-N-(4-(trifluoromethyl)pyridin-2-yl)benzamide]
27 | > 50 | > 7.00 | C=CC(=O)Nc1cccc(-c2cc(-c3ccc(Oc4ccccc4)nc3)cc3cncnc23)c1 [C061, N-(3-(6-(6-phenoxypyridin-3-yl)quinazolin-8-yl)phenyl)acrylamide]
28 | < 50 |  | C=CC(=O)N1CCC(c2cc(-c3ccc(C(=O)Nc4ccc(C(F)(F)F)cn4)cc3)cc3cncnc23)C1 (stereo not shown) [C142, 4-(8-(1-acryloylpyrrolidin-3-yl)quinazolin-6-yl)-N-(5-(trifluoromethyl)pyridin-2-yl)benzamide]
29 | < 50 |  | C=CC(=O)N1CCC(c2cc(-c3ccc(C(=O)Nc4cc(C5CC5)ccn4)cc3F)n3cnccc23)C1 (stereo not shown) [C149, 4-(5-(1-acryloylpyrrolidin-3-yl)pyrrolo[1,2-c]pyrimidin-7-yl)-N-(4-cyclopropylpyridin-2-yl)-3-fluorobenzamide]
30 |  | > 7.00 | C=CC(=O)N1CCC(c2nc(-c3ccc(Oc4ncccc4F)c(OC)c3)n3c(N)nccc23)C1 (stereo not shown) [C233, 1-(3-(5-amino-3-(4-((3-fluoropyridin-2-yl)oxy)-3-methoxyphenyl)imidazo[1,5-c]pyrimidin-1-yl)pyrrolidin-1-yl)prop-2-en-1-one]
31 | > 50 | > 7.00 | C=CC(=O)Nc1cccc(-c2cc(-c3ccc(C(=O)Nc4cc(C#N)ccn4)cc3Cl)cc3cncnc23)c1 [C122, 4-(8-(3-acrylamidophenyl)quinazolin-6-yl)-3-chloro-N-(4-cyanopyridin-2-yl)benzamide]
32 | < 50 |  | C=CC(=O)Nc1cccc(-c2cc(-c3ccc(C(=O)Nc4ccccn4)cc3)cc3cnc(N)nc23)c1 [C040, 4-(8-(3-acrylamidophenyl)-2-aminoquinazolin-6-yl)-N-(pyridin-2-yl)benzamide]
33 | < 50 |  | C=CC(=O)N1CCC(c2cc(-c3ccc(C(=O)Nc4cc(OC)ccn4)cc3)n3cnccc23)C1 (stereo not shown) [C162, 4-(5-(1-acryloylpyrrolidin-3-yl)pyrrolo[1,2-c]pyrimidin-7-yl)-N-(4-methoxypyridin-2-yl)benzamide]
34 | > 50 | > 7.00 | C=CC(=O)Nc1cccc(-c2cc(-c3ccccc3C#N)cc3cnc(N)nc23)c1 [C091, N-(3-(2-amino-6-(2-cyanophenyl)quinazolin-8-yl)phenyl)acrylamide]
35 | < 50 |  | C=CC(=O)Nc1cccc(-c2cc(-c3ccc(C(=O)Nc4ncccc4F)cc3)c(N)c3cncnc23)c1 [C211, 4-(8-(3-acrylamidophenyl)-5-aminoquinazolin-6-yl)-N-(3-fluoropyridin-2-yl)benzamide]
36 | < 50 |  | C=CC(=O)Nc1cccc(-c2cc(-c3cccc(Nc4ccccc4)c3)cc3c(N)ncnc23)c1 [C022, N-(3-(4-amino-6-(3-(phenylamino)phenyl)quinazolin-8-yl)phenyl)acrylamide]
